pIC50: −log10 of the molar value. A value given as a limit tells only on which side of the number the result lay.

For the assay, the target named is T1, Human cRaf1 (Homo sapiens, UniProt P04049).
T1 construct: poly-histidine (C); made in house
T1 sequence (P04049 whole entry): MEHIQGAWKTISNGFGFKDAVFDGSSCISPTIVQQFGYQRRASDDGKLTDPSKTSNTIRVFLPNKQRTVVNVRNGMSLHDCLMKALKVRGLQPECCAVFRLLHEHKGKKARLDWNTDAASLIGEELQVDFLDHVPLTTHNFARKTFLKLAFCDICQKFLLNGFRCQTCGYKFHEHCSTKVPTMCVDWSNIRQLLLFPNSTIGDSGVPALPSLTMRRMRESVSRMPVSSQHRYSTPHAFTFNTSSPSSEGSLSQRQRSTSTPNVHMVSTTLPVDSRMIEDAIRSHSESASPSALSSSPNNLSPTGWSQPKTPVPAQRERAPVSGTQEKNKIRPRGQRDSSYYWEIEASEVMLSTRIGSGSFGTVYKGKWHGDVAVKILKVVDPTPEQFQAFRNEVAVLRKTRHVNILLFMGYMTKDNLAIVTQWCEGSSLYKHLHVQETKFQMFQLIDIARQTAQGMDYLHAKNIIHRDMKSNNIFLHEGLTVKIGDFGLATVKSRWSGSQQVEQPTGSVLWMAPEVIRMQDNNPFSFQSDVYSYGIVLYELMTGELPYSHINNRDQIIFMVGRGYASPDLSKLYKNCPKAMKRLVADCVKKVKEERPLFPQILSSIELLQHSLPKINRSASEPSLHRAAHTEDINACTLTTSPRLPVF
Description: Raf kinase assay (cRaf1 assay / Raf/MEK cascade assay). The class given is biochemical. The conditions noted are these: Table 3; read-out: Raf Kinase activity.
On to `CC(C)N(C(=O)Oc1c(Br)cc(C=C2C(=O)Nc3ccc(Cl)cc32)cc1Br)C(C)C` [Example 106, 2,6-Dibromo-4-[(5-chloro-2-oxo-1,2-dihydro-3H-indol-3-ylidene)methyl]phenyl N,N-diisopropylcarbamate], for which the pIC50 is 4.00 to 5.00.
For the molecule `CN(C)CC(=O)c1ccc2c(c1)C(=Cc1cc(Br)c(O)c(Br)c1)C(=O)N2` [Example 107, 3-(3,5-Dibromo-4-hydroxy-benzylidene)-5-(2-dimethylamino-acetyl)-1,3-dihydro-indol-2-one], the pIC50 was greater than 6.00.
As for `CCN(CCO)CC(=O)c1ccc2c(c1)C(=Cc1cc(Br)c(O)c(Br)c1)C(=O)N2` [Example 108, 3-(3,5-Dibromo-4-hydroxy-benzylidene)-5-{2-[N-ethyl-N-(2-hydroxy-ethyl)-amino]-acetyl}-1,3-dihydro-indol-2-one], the pIC50 is greater than 6.00.
Regarding `O=C1Nc2c(F)cccc2C1=Cc1cc(Br)c(O)c(Br)c1` [Example 109, 3-(3,5-Dibromo-4-hydroxy-benzylidene)-7-fluoro-1,3-dihydro-indol-2-one], the pIC50 was greater than 6.00.
For `CN1CCN(CC(=O)c2ccc3c(c2)C(=Cc2cc(Br)c(O)c(Br)c2)C(=O)N3)CC1` [Example 110, 3-(3,5-Dibromo-4-hydroxy-benzylidene)-5-[2-(4-methyl-piperazin-1-yl)-acetyl]-1,3-dihydro-indol-2-one] the value was greater than 6.00; for `O=C1Nc2cc(-c3ccccc3)ccc2C1=Cc1cc(Br)c(O)c(Br)c1` [Example 112, 3-(3,5-Dibromo-4-hydroxy-benzylidene)-6-phenyl-1,3-dihydro-indol-2-one], 5.00 to 6.00.
Consider `CC(C)Oc1ccc2c(c1)NC(=O)C2=Cc1cc(Br)c(O)c(Br)c1` [Example 113, 3-(3,5-Dibromo-4-hydroxy-benzylidene)-6-isopropoxy-1,3-dihydro-indol-2-one], for which the pIC50 was 5.00 to 6.00.
Regarding `O=C1Nc2ccc(C(=O)CCl)cc2C1=Cc1cc(I)c(O)c(I)c1` [Example 114, 5-(2-Chloro-acetyl)-3-(3,5-diiodo-4-hydroxy-benzylidene)-1,3-dihydro-indol-2-one], the pIC50 was greater than 6.00.
As for `CCN(CC)S(=O)(=O)c1ccc2c(c1)C(=Cc1cc(Cl)c(O)c(Cl)c1)C(=O)N2` [Example 115, 3-(3,5-Dichloro-4-hydroxy-benzylidene)-2-oxo-2,3-dihydro-1H-indol-5-sulfonic acid diethylamide], the pIC50 is greater than 6.00.
With `O=C1Nc2ccc(S(=O)(=O)N3CCOCC3)cc2C1=Cc1cc(Cl)c(O)c(Cl)c1` [Example 116, 3-(3,5-Dichloro-4-hydroxy-benzylidene)-5-(morpholine-4-sulfonyl)-1,3-dihydro-indol-2-one], the pIC50 was greater than 6.00.
For `CC(=O)N1CCc2cc3c(cc21)C(=Cc1cc(Br)c(O)c(Br)c1)C(=O)N3` [Example 118, 5-Acetyl-3-(3,5-dibromo-4-hydroxy-benzylidene)-3,5,6,7-tetrahydro-1H-pyrrolo[2,3-f]indol-2-one] the value was greater than 6.00; for `CCc1ccc2c(c1)C(=Cc1cc(Br)c(O)c(Br)c1)C(=O)N2` [Example 120, 3-(3,5-Dibromo-4-hydroxy-benzylidine)-5-ethyl-1,3-dihydro-indol-2-one], greater than 6.00.
For `O=C1Nc2cc(Br)ccc2C1=Cc1cc(Br)c(O)c(Br)c1` [Example 123, 6-Bromo-3-(3,5-dibromo-4-hydroxy-benzylidene)-1,3-dihydro-indol-2-one] the value was greater than 6.00; for `O=C1Nc2ccc(-c3csc(-c4ccccc4)n3)cc2C1=Cc1cc(Cl)c(O)c(Cl)c1` [Example 124, 3-(3,5-Dichloro-4-hydroxy-benzylidene)-5-(2-phenyl-thiazol-4-yl)-1,3-dihydro-indol-2-one], greater than 6.00; for `O=C1Nc2ccc(-c3csc(-c4ccccc4)n3)cc2C1=Cc1cc(Br)c(O)c(Br)c1` [Example 125, 3-(3,5-Dibromo-4-hydroxy-benzylidene)-5-(2-phenyl-thiazol-4-yl)-1,3-dihydro-indol-2-one], greater than 6.00.
`O=C1Nc2ccc(-c3csc(Nc4ccccc4)n3)cc2C1=Cc1cc(Br)c(O)c(Br)c1` [Example 126, 3-(3,5-Dibromo-4-hydroxy-benzylidene)-5-(2-phenylamino-thiazol-4-yl)-1,3-dihydro-indol-2-one]: the pIC50 was greater than 6.00.
For `O=C1Nc2ccc(-c3csc(Nc4ccccc4)n3)cc2C1=Cc1cc(Cl)c(O)c(Cl)c1` [Example 127, 3-(3,5-Dichloro-4-hydroxy-benzylidene)-5-(2-phenylamino-thiazol-4-yl)-1,3-dihydro-indol-2-one] the value was greater than 6.00.
`O=C1Nc2ccc(C3=NNC(=S)NC3)cc2C1=Cc1cc(Cl)c(O)c(Cl)c1` [Example 128, 3-(3,5-Dichloro-4-hydroxy-benzylidene)-5-(3-thioxo-2,3,4,5-tetrahydro-[1,2,4]-triazine-6-yl)-1,3-dihydro-indol-2-one]: the pIC50 was greater than 6.00.
Regarding `O=C1Nc2ccc(C3=NNC(=S)NC3)cc2C1=Cc1cc(Br)c(O)c(Br)c1` [Example 129, 3-(3,5-Dibromo-4-hydroxy-benzylidene)-5-(3-thioxo-2,3,4,5-tetrahydro-[1,2,4]-triazine-6-yl)-1,3-dihydro-indol-2-one], the pIC50 was greater than 6.00.
Consider `O=C1Nc2ccc3[nH]nnc3c2C1=Cc1cc(Br)c(O)c(Br)c1` [Example 132, 8-(3,5-Dibromo-4-hydroxy-benzylidene)-6,8-dihydro-3H-1,2,3,6-tetraaza-as-indacen-7-one], for which the pIC50 is greater than 6.00.
As for `Nc1nc(-c2ccc3c(c2)C(=Cc2cc(Cl)c(O)c(Cl)c2)C(=O)N3)cs1` [Example 134, 5-(2-Amino-thiazol-4-yl)-3-(3,5-dichloro-4-hydroxy-benzylidene)-1,3-dihydro-indol-2-one], the pIC50 is greater than 6.00.
For `Nc1nc2ccc3c(c2s1)C(=Cc1cc(Br)c(O)c(Br)c1)C(=O)N3` [Example 135, 2-Amino-8-(3,5-dibromo-4-hydroxy-benzylidene)-6,8-dihydro-1-thia-3,6-diaza-as-indacen-7-one] the value was greater than 6.00; for `CC(=O)Nc1nc(-c2ccc3c(c2)C(=Cc2cc(Br)c(O)c(Br)c2)C(=O)N3)cs1` [Example 136, 5-(N-Acetyl-2-amino-thiazol-4-yl)-3-(3,5-dibromo-4-hydroxy-benzylidene)-1,3-dihydro-indol-2-one], greater than 6.00.
In the case of `NC(=O)c1ccc2c(c1)C(=Cc1cc(Br)c(O)c(Br)c1)C(=O)N2` [Example 137, 3-(3,5-Dibromo-4-hydroxy-benzylidene)-2-oxo-2,3-dihydro-1H-indol-5-carboxylic acid amide], the pIC50 was greater than 6.00.
Regarding `O=C1Nc2ccc(-c3cccnc3)cc2C1=Cc1cc(Br)c(O)c(Br)c1` [Example 138, 3-(3,5-Dibromo-4-hydroxy-benzylidene)-5-pyrid-3-yl-1,3-dihydro-indol-2-one], the pIC50 was greater than 6.00.
In the case of `O=C1Nc2ccc(-c3ccsc3)cc2C1=Cc1cc(Br)c(O)c(Br)c1` [Example 139, 3-(3,5-Dibromo-4-hydroxy-benzylidene)-5-thiophen-3-yl-1,3-dihydro-indol-2-one], the pIC50 was greater than 6.00.
With `CNc1nc(-c2ccc3c(c2)C(=Cc2cc(Br)c(O)c(Br)c2)C(=O)N3)cs1` [Example 140], the pIC50 was greater than 6.00.
For `CNc1nc(-c2ccc3c(c2)C(=Cc2cc(Cl)c(O)c(Cl)c2)C(=O)N3)cs1` [Example 141] the value was greater than 6.00; for `O=C1Nc2ccc(-c3nnn[nH]3)cc2C1=Cc1cc(Br)c(O)c(Br)c1` [Example 142, 3-(3,5-Dibromo-4-hydroxy-benzylidene)-5-(1H-tetrazol-5-yl)-1,3-dihydro-indol-2-one], greater than 6.00; for `Cc1nc(-c2ccc3c(c2)C(=Cc2cc(Br)c(OC(=O)N(CCO)CCO)c(Br)c2)C(=O)N3)cs1` [Example 144, N[bis(2-Hydroxyethyl)]-carbamic acid 2,6 dibromo-4-[5-(2-methyl-thiazol-4-yl)-2-oxo-1,2-dihydro-indol-3-ylidenemethyl]-phenyl ester], 4.00 to 5.00.
For the molecule `Cc1nnc(-c2ccc3c(c2)C(=Cc2cc(Br)c(O)c(Br)c2)C(=O)N3)o1` [Example 145, 3-(3,5-Dibromo-4-hydroxy-benzylidene)-5-(5-methyl-[1,3,4]oxadiazol-2-yl)-1,3-dihydro-indol-2-one], the pIC50 was greater than 6.00.
The figure for `O=C(OCc1ccccc1)Oc1c(Br)cc(C=C2C(=O)Nc3ccc(Cl)cc32)cc1Br` [Example 146, Benzyl 2,6-dibromo-4-[(5-chloro-2-oxo-1,2-dihydro-3H-indol-3-ylidene)methyl]phenyl carbonate] is 4.00 to 5.00; for `CCOC(=O)Oc1c(Br)cc(C=C2C(=O)Nc3ccc(Cl)cc32)cc1Br` [Example 147, 2,6-Dibromo-4-[(5-chloro-2-oxo-1,2-dihydro-3H-indol-3-ylidene)methyl]phenyl ethyl carbonate] it is 4.00 to 5.00.
Consider `CC(C)COC(=O)Oc1c(Br)cc(C=C2C(=O)Nc3ccc(Cl)cc32)cc1Br` [Example 148, 2,6-Dibromo-4-[(5-chloro-2-oxo-1,2-dihydro-3H-indol-3-ylidene)methyl]phenyl isobutyl carbonate], for which the pIC50 was 4.00 to 5.00.
Consider `O=C(OCc1cccnc1)Oc1c(Br)cc(C=C2C(=O)Nc3ccc(Cl)cc32)cc1Br` [Example 149, 2,6-Dibromo-4-[(5-chloro-2-oxo-1,2-dihydro-3H-indol-3-ylidene)methyl]phenyl 3-pyridinylmethyl carbonate], for which the pIC50 was 4.00 to 5.00.
As for `CC(C)(C)C(=O)OCOc1c(Br)cc(C=C2C(=O)Nc3ccc(Cl)cc32)cc1Br` [Example 150, 2,6-Dibromo-4-[(5-chloro-2-oxo-1,2-dihydro-3H-indol-3-ylidene)methyl]phenoxymethyl pivalate], the pIC50 is 4.00 to 5.00.
As for `O=C1Nc2ccc(I)cc2C1=Cc1cc(Br)c(OC(=O)N2CCOCC2)c(Br)c1` [Example 151, 2,6-Dibromo-4-[(5-iodo-2-oxo-1,2-dihydro-3H-indol-3-ylidene)methyl]phenyl 4-morpholinecarboxylate], the pIC50 is 4.00 to 5.00.
On to `O=C(NCCOCCO)Oc1c(Br)cc(C=C2C(=O)Nc3ccc(I)cc32)cc1Br` [Example 152, 2,6-Dibromo-4-[(5-iodo-2-oxo-1,2-dihydro-3H-indol-3-ylidene)methyl]phenyl N-[2-(2-hydroxyethoxy)ethyl]carbamate], for which the pIC50 was greater than 6.00.

The values are drawn from patent US6268391A, “Benzylidene-1,3-dihydro-indol-2-one derivatives a receptor tyrosine kinase inhibitors, particularly of Raf kinases” (Glaxo Wellcome Inc., priority 1997, dated 2001).
